Reference: patent publication US20030232101A1, “Topical formulations of resorcinols and cannibinoids and methods of use” (Immugen Pharmaceuticals, Inc., priority 2002, published 2003)
Like-named read-outs stand apart in the source and are kept apart here.

Tests used:
[1] = Compound toxicity in the attachment assay, sister plates, MTS dye reduction; assay type: cell-based; conditions: human, HeLa CD4 LTR β-gal cells, read-out: TC50
Description: (§1) At assay termination the assay plates were stained with the soluble tetrazolium-based dye MTS (CellTiter96® Reagent Promega) to determine cell viability and quantify compound toxicity. MTS is metabolized by the mitochondria enzymes of metabolically active cells to a soluble formazan product, allowing the rapid quantitative analysis cell viability and compound cytotoxicity. […] At termination of the assay 20 μL of MTS reagent was added per well and incubated for 4 h at 37° C. Adhesive plate sealers were used in place of the lids, the sealed plate was inverted several times to mix the soluble formazan product and the plate was read spectrophotometrically at 490 nm with a Molecular Devices Vmax plate reader.
The attachment assay was performed with the HeLa CD4 LTR β-gal cells available from the AIDS Research and Reference Reagent Repository. […] HeLa CD4 LTR β-gal cells express cell surface CD4 and contain an LTR β-galactosidase reporter construct. Upon infection either the Tat protein incorporated into the virion or new Tat produced following virus integration and transcription trans-activates the LTR β-gal reporter, leading to expression of the β-galactosidase enzyme. HeLa CD4 LTR β-gal cells are routinely cultured with the required selection antibiotics and screened for mycoplasma contamination. Twenty-four h prior to initiation of the assay cells were trypsinized, counted and 1×10^4 cells placed in a 0.2 cm well in media without selection antibiotics. […] A known titer of virus was then added to the wells and the incubation continued for 1 h. At the end of the incubation the wells were washed 6 times with media and the culture continued for 48 h. At 48 h the wells were washed one time with PBS and β-galactosidase enzyme expression determined by chemiluminescence per manufacturers instructions (Tropix Gal-screen™, Tropix, Bedford, Mass.). Compound toxicity was monitored on sister plates using MTS dye reduction.

HIV-1 strain RoJo = experiment: PBMC time of addition assay (RT activity in supernatant at 6 days); assay type: cell-based; conditions: for IC50: Human immunodeficiency virus 1, PBMC; for fold regain of potency (decrease in IC50): after the loss at 2 h
From the text: (§2) Human peripheral blood mononuclear cells (PBMCs) from a minimum of 2 donors, that have been blasted with PHA and IL-2, were counted, viability determined by Trypan Blue dye exclusion and mixed in equal ratios. Pooled donors were used to minimize the variability observed between individual donors which results from quantitative and qualitative differences in HIV infection and overall response to the PHA and IL-2 of primary lymphocyte populations. The cells were resuspended at 1×10^6 cells /mL in RPMI 1640 without phenol red supplemented with 15% Fetal Bovine Serum (heat inactivated), 2 mM L-glutamine, 100 U/mL penicillin, 100 μg/mL streptomycin, 10 μg/mL gentamycin and IL-2 (20 U/mL, R&D Systems, Minneapolis, Minn.). Fifty microliters of cells were then distributed to the inner 60 wells of a 96 well round bottom microtiter culture plate in a standard format developed by the Infectious Disease Research department of Southern Research Institute. Each plate contains cell control wells (cells only), virus control wells (cells plus virus), and experimental wells (drug plus cells plus virus). Alternatively, cells were cultured in T25 cm^2 or T75 cm^2 tissue culture flasks at a starting density of 1×10^6 cells per ml. Serially diluted compounds were added to the microtiter plate or tissue culture flask followed by the appropriate pre-titered strain of HIV-1. For virus replication inhibition experiments the HIV-1 strain RoJo was used. This is a low passage presumable subtype B pediatric isolate with a syncytium inducing (SI) phenotype in MT-2 cells isolated by Southern Research Institute personnel. All samples were assayed in triplicate where possible with an accompanying determination of compound toxicity. The final volume per well in the microtiter plates was 200 μL. The final volume in the tissue culture flask varied depending upon experimental design and flask size. Assays were incubated for 6 days in a humidified atmosphere at 37° C., 5% CO^2, after which supernatants were collected, for analysis of RT activity and cell viability by MTS dye reduction. Culture were also examined microscopically, any abnormalities noted, and in the case of tissue culture flasks cell counts and viability determined by Trypan Blue Dye exclusion.
(§3) Time of addition assays were performed with PBMCs in two ways. For both assays, PBMCs were isolated and cultured under the conditions as described above. Time of addition assays were carried out in either a tissue culture flask format (T-75 cm^2) or in microtiter wells. In both cases due to the lack of plastic adherence and heterogeneity of the PBMC population for susceptibility to infection, it was not possible to use complete removal of virus following a timed adsorption to synchronize the infection and limit the assay to a single round of infection. Therefore, serial washing by partial removal of the media was used to reduce the concentration of virus and compound (if required) in the assay. Compound addition in relationship to antiviral activity was either assessed over a short addition interval immediately before or after virus addition or for up to 72 h post infection. For all assays virus replication was assessed at 6 days of culture by determining RT expression in cell-free supernatants. In the tissue culture flask format cells were counted and Trypan Blue Dye exclusion used to monitor compound cytotoxicity. Cell viability in the 96 well microtiter plate format was determined by MTS dye reduction. AZT was used as a positive control.
Reverse transcriptase activity was measured in cell-free supernatants. Tritiated thymidine triphosphate (NEN) (TTP) was resuspended in distilled H2O at 5 Ci/mL. Poly rA and oligo dT were prepared as a stock solution which was kept at −20° C. The RT reaction buffer was prepared fresh on a daily basis and consists of 125 μL 1.0 M EGTA, 125 μL dH2O, 110 μL 10% SDS, 50 μL 1.0 M Tris (pH 7.4), 50 μL 1.0 M DTT, and 40 μL 1.0 M MgCl2. […]

[2] = PBMC cell viability in time of addition assay (MTS / Trypan Blue); assay type: cell-based, Human; conditions: human, read-out: TC50
From the text: as §2, §3
as §1, with “Adhesive plate sealers were used in place of the lids, the sealed plate was inverted several times to mix the soluble formazan product and the plate was read spectrophotometrically at 490 nm with a Molecular Devices Vmax plate reader.” left out

[3] = system: peripheral blood mononuclear cells (PBMCs); experiment: as above; assay type: cell-based, Human; conditions: read-out: TC50 (the source's name)
From the text: as §2, §3
as §1, with “Adhesive plate sealers were used in place of the lids, the sealed plate was inverted several times to mix the soluble formazan product and the plate was read spectrophotometrically at 490 nm with a Molecular Devices Vmax plate reader.” left out

[4] = addition prior to infection, pre-treatment 0 h
[5] = addition prior to infection, pre-treatment 2 h
[6] = addition prior to infection, pre-treatment 4 h
[7] = addition prior to infection, pre-treatment 24 h

Compound	CC50 at 48 h ([1]; Experiment 1, pretreat 0 h)	CC50 at 48 h ([1]; Experiment 1, pretreat 4 h)	CC50 at 48 h ([1]; Experiment 1, pretreat 24 h)	CC50 at 48 h ([1]; Experiment 2, pretreat 0 h)	CC50 at 48 h ([1]; Experiment 2, pretreat 4 h)	CC50 at 48 h ([1]; Experiment 2, pretreat 24 h)	IC50 (HIV-1 strain RoJo; 4 h, treatment −4 h pre)	IC50 (HIV-1 strain RoJo; 6 h, treatment 6 h post)	IC50 (HIV-1 strain RoJo; [4])	IC50 (HIV-1 strain RoJo; [5])	IC50 (HIV-1 strain RoJo; [6])	IC50 (HIV-1 strain RoJo; [7])	IC50 (HIV-1 strain RoJo; treatment at infection)	CC50 at 6 days ([2]; treatment −4 h pre)	CC50 ([3]; treatment 6 h post)	CC50 ([3]; treatment at infection)	fold increase in IC50 (HIV-1 strain RoJo; 24 h pretreatment)	also measured
CC(C)=CCCC1(C)CCc2c(O)cc(C(C)(C)CCCC(C)C)cc2O1 (stereo not drawn) [IMG508, 3,4-Dihydro-2-methyl-2-(4-methyl-3-pentenyl)-7-(1,1,5-trimethylhexyl)-2H-1-benzopyran-5-ol]	> 50 µM	> 50 µM	> 50 µM	> 50 µM	29 µM	12.2 µM	6.2 µM	22.5 µM	14.2 µM	10.4 µM	4.1 µM	11.9 µM	15.7 µM	> 100 µM	> 100 µM	> 100 µM	–	fold decrease in IC50 (HIV-1 strain RoJo; 4 h pretreatment): 4-fold decrease in IC50
Cc1c(O)cc(C(C)(C)CCCC(C)C)cc1O [IMG510, 2-Methyl-5-(1,1,5-trimethylhexyl)resorcinol]	> 50 µM	> 50 µM	> 50 µM	> 50 µM	> 50 µM	39.4 µM	17.7 µM	14.4 µM	13.4 µM	1.4 µM	11.5 µM	9.5 µM	16.1 µM	> 100 µM	> 100 µM	> 100 µM	–	fold decrease in IC50 (HIV-1 strain RoJo; 2 h pretreatment): 9.5-fold decrease in
COc1cc(C(C)(C)CCCC(C)C)cc(OC)c1OC [IMG507, 1-(1,1,5-Trimethylhexyl)-3,4,5-trimethoxybenzene]	> 50 µM	> 50 µM	> 50 µM	> 50 µM	> 50 µM	> 50 µM	39.5 µM	46.1 µM	6.9 µM	6.1 µM	5.3 µM	10.8 µM	67 µM	–	> 100 µM	–	approximately 2 fold	CC50 at 6 days ([2]; treatment at infection): > 100 µM; CC50 ([3]; treatment −4 h pre): > 100 µM
Cc1ccc2c(c1)-c1c(O)cc(C(C)(C)CCCC(C)C)cc1OC2(C)C [IMG511, 3-Norpentyl-3-(1,1,5-trimethylhexyl)cannabinol]	> 50 µM	> 50 µM	> 50 µM	> 50 µM	> 50 µM	11.1 µM	15.2 µM	9.3 µM	6.6 µM	9.4 µM	11.7 µM	33.2 µM	16.9 µM	> 100 µM	> 100 µM	> 100 µM	5-fold increase in IC50	–
CC1=CCC2C(C1)c1c(O)cc(C(C)(C)CCCC(C)C)cc1OC2(C)C (stereo not drawn) [IMG509, 3-Norpentyl-3-(1,1,5-trimethylhexyl)-Δ8-tetrahydrocannabinol]	> 50 µM	> 50 µM	> 50 µM	> 50 µM	37 µM	14.9 µM	19.6 µM	10 µM	9.3 µM	11 µM	12.6 µM	6.6 µM	17.5 µM	> 100 µM	> 100 µM	> 100 µM	–	fold decrease in IC50 (HIV-1 strain RoJo; 24 h pretreatment): approximately 2 fold
C=C(C)[C@@H]1CCC(C)=C[C@H]1c1c(O)cc(CCCCC)cc1O [Cannabidiol, reference compound]	> 50 µM	> 50 µM	> 50 µM	> 50 µM	41 µM	33 µM	–	–	–	–	–	–	–	> 100 µM	> 100 µM	> 100 µM	fold at 4 h then a 17-	fold loss of activity (potency) (HIV-1 strain RoJo; 2 h pretreatment, listed as cannabidiol): approximately 10 fold; fold regain of potency (decrease in IC50) (HIV-1 strain RoJo; 4 h pretreatment): activity at 2 , regain 3.3-fold; fold regain of potency (decrease in IC50) (HIV-1 strain RoJo; 4 h pretreatment, listed as cannabidiol): 3.3 fold; fold increase in IC50 (HIV-1 strain RoJo; 24 h pretreatment, listed as cannabidiol): 17 fold; IC50 (HIV-1 strain RoJo; addition prior to infection, pre-treatment 0 h, read-out: IC50): 0.58 µM; IC50 (HIV-1 strain RoJo; addition prior to infection, pre-treatment 2 h, read-out: IC50): 5 µM; IC50 (HIV-1 strain RoJo; addition prior to infection, pre-treatment 4 h, read-out: IC50): 1.5 µM
